# From ChEMBL document CHEMBL2331549, “Cyclopropyl- and methyl-containing inhibitors of neuronal nitric oxide synthase” (Bioorg Med Chem, 2013)
# pKi: −log10 of the molar value.
# Experiments:
# [1] = Selectivity ratio of Ki for rat nNOS to Ki for mouse iNOS
# [2] = Selectivity ratio of Ki for rat nNOS to Ki for bovine eNOS
# [3] = biological target: T1, Nitric oxide synthase, inducible (Mus musculus, UniProt P29477); assay: Inhibition of mouse iNOS expressed in Escherichia coli using L-arginine as substrate assessed as formation of nitric oxide by hemoglobin capture assay
# T1 sequence (P29477 whole entry): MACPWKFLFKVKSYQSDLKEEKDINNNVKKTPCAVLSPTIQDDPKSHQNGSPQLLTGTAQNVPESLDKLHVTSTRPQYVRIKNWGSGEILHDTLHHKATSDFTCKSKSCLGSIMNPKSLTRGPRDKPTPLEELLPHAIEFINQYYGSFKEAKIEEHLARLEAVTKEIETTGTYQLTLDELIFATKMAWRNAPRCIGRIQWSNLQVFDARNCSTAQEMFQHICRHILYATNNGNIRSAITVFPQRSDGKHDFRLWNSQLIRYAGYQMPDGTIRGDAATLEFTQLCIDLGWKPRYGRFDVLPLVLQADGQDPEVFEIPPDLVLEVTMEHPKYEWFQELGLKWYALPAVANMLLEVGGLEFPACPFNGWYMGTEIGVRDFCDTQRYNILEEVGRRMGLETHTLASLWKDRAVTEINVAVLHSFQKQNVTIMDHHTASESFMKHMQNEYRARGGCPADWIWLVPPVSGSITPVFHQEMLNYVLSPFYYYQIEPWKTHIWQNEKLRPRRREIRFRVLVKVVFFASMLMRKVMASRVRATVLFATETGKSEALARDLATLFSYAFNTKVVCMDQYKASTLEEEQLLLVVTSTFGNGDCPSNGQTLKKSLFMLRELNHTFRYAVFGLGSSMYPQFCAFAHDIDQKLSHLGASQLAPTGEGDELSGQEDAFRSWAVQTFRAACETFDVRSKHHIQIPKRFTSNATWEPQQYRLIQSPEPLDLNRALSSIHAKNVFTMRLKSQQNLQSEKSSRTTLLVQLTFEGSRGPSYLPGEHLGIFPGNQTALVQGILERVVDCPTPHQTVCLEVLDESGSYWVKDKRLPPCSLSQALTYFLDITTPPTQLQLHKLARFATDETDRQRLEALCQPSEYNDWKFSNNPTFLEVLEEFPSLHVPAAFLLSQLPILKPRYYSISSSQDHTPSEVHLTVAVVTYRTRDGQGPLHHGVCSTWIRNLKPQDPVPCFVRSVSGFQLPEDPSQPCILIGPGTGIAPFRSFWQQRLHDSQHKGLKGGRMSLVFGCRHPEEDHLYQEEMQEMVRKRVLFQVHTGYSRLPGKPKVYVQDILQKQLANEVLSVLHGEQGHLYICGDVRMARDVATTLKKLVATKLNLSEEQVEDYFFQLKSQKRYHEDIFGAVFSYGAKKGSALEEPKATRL
# [4] = biological target: T2, Nitric oxide synthase 3 (Bos taurus, UniProt P29473); assay: Inhibition of bovine eNOS expressed in Escherichia coli using L-arginine as substrate assessed as formation of nitric oxide by hemoglobin capture assay
# T2 sequence (P29473 whole entry): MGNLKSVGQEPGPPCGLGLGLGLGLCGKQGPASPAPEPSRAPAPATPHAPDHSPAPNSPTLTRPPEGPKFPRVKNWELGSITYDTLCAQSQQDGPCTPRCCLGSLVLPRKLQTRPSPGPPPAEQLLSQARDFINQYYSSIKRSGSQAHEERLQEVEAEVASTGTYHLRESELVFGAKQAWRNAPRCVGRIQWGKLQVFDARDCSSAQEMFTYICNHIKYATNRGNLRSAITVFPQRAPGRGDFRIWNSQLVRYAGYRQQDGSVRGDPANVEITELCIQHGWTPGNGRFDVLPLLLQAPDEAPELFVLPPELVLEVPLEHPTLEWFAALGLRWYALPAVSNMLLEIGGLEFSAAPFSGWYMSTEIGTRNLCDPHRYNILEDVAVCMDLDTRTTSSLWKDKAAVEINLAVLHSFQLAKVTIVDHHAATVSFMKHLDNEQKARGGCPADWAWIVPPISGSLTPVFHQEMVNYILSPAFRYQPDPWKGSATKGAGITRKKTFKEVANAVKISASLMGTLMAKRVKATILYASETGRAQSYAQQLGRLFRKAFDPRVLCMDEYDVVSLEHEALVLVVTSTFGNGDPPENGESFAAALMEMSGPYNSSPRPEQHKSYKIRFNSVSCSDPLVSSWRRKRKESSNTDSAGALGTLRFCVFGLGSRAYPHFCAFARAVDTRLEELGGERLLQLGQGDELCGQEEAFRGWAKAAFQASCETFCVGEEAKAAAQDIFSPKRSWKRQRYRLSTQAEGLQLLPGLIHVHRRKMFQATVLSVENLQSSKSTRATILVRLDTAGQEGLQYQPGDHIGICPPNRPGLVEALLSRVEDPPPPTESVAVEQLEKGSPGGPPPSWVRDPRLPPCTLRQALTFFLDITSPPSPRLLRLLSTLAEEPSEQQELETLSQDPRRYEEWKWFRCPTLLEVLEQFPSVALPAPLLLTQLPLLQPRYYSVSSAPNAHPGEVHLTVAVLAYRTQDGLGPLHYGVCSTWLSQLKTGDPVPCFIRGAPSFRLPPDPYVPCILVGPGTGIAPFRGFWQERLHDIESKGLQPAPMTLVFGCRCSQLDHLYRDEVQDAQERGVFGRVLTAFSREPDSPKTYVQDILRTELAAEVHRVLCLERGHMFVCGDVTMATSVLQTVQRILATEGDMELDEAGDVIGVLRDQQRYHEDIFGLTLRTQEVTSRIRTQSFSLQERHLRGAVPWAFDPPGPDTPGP
# [5] = biological target: Nitric oxide synthase 1 (Rattus norvegicus, UniProt P29476); assay: Inhibition of rat nNOS expressed in Escherichia coli using L-arginine as substrate assessed as formation of nitric oxide by hemoglobin capture assay
# Sequence of Nitric oxide synthase 1 (P29476 whole entry): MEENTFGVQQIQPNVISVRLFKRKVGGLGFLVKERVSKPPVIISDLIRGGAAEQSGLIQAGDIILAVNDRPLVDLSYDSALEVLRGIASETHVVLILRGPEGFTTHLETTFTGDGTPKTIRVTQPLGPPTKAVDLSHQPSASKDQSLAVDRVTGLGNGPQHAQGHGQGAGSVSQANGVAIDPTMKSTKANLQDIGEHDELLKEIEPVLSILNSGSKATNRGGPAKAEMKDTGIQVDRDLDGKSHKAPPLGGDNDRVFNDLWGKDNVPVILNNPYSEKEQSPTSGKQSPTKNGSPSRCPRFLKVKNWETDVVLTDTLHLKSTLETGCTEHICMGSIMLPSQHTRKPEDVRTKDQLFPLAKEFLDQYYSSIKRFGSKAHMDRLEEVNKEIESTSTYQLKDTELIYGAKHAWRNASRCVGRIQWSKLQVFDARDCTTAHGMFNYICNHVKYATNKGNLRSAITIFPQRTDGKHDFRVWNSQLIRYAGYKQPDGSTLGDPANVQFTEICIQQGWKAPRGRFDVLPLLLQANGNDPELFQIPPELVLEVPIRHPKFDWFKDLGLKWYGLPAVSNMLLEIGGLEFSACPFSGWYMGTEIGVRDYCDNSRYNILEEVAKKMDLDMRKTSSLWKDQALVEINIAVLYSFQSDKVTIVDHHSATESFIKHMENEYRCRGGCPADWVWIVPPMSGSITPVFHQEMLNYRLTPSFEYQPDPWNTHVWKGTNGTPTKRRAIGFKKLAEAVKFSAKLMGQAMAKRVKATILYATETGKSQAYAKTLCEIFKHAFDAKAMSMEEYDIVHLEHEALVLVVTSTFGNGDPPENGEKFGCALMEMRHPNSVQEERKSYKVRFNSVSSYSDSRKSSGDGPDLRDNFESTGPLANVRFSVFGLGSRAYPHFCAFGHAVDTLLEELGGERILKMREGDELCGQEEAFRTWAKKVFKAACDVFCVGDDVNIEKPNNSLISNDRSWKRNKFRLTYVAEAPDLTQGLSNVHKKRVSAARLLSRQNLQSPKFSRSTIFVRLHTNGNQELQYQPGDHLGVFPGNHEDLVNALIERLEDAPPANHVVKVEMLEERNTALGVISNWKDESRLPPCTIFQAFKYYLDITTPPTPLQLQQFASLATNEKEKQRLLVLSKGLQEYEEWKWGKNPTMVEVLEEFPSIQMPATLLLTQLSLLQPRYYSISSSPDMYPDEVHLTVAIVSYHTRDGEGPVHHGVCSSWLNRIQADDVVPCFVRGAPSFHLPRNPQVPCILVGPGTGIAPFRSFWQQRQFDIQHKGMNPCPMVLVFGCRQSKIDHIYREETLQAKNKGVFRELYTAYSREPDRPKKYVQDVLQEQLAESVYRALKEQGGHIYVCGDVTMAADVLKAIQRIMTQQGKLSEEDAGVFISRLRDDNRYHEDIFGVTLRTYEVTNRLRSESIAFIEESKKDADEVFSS
SMILES,Ratio Ki [1],Ratio Ki [2],pKi [3],pKi [4],pKi [5]
Cc1cc(N)nc(C[C@@H]2CNC[C@@H]2OCCNC2CC2c2cccc(Cl)c2)c1 (mixture of isomers),12,370,,,
Cc1cc(N)nc(C[C@@H]2CNC[C@@H]2OCCNC(C)Cc2cccc(F)c2)c1 (mixture of isomers),12,370,,,
Cc1cc(N)nc(C[C@@H]2CNC[C@@H]2OCCNC2CC2c2cccc(F)c2)c1 (mixture of isomers),94,300,4.80,4.29,6.77
Cc1cc(N)nc(C[C@@H]2CNC[C@@H]2OCCN[C@H](C)Cc2cccc(F)c2)c1,110,570,5.12,4.40,7.15
